Measurements taken from patent US10682320B2, “Method for inhibiting osteoclast development” (West Virginia University, priority 2012, dated 2020).
pIC50: −log10 of the molar value.

What was measured:
Assay type in all cases: cell-based
[1] = target: T1, STIM I/Orai I interaction (Homo sapiens, UniProt Q13586); test: 2-APB-induced STIM I ct translocation to plasma membrane; settings: 2-APB 50 μM, as early as 5 seconds
T1 construct: the cytosolic fragment of STIM I (STIM 1 ct); expressed in transfected cells
T1 sequence (Q13586 235-685 limits assumed): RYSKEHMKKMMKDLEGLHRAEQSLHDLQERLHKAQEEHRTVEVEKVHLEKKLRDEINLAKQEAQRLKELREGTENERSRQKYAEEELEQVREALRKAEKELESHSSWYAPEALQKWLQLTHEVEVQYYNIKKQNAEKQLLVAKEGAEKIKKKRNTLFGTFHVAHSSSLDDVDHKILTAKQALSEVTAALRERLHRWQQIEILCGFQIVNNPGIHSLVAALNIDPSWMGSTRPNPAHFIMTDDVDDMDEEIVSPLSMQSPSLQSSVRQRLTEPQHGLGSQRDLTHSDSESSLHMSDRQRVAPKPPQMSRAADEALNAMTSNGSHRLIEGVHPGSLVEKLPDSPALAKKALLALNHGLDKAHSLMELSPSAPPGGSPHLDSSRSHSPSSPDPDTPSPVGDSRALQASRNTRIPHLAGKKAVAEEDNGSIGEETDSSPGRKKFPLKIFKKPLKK
Protocol: HEK293 cells, maintained in DMEM with 10% FBS, were transfected with YFP-STIM I using Lipofectamine 2000 (Invitrogen, Carlsbad, Calif.) for 5 h (37° C.; 5% CO2) followed by a 24-h recovery. Cells were placed in 140 mM NaCl, 5 mM KCl, 1 mM MgCl2, 10 mM glucose, 15 mM HEPES, 0.1% BSA, 2 mM CaCl2 and analyzed by confocal microscopy for STIM I puncta formation using a Nikon phase-fluorescence microscope with CCD detectors (Diagnostic instruments, Sterling Heights, Mich.). Phase or transmitted light microscopy used 10-40× objectives and red, green, and blue filters to assemble color images. Fluorescence images used 1.4 NA 40× oil objectives. Red fluorescence used excitation at 530-560 nm, a 575 nm dichroic minor, and 580-650 nm emission filter. Transfection data were analyzed using Nikon NIS Elements Imaging Software. The effect of DCPA on STIM I/Orai I association was determined in wild-type HEK293 cells transfected with STIM I-YFP as described in Wang Y, Deng X, Zhou Y, Hendron E, Mancarelia S, Ritchie M F, Tang X D, Baba Y, Kurosaki T, Mori Y, Soboloff J, Gill DL, “STIM protein coupling in the activation of Orai channels”, Proc Natl Acad Sci USA, Vol. 106, pages 7391-7396, 2009. Experiments were performed on a Leica DMI 6000B fluorescence microscope controlled by Slidebook Software (Intelligent Imaging Innovations, Denver, Colo.).

[2] = target: T2, CRAC channel (Homo sapiens, UniProt Q13586); test: CRAC channel activity as measured by intracellular calcium influx; settings: for effect on intracellular calcium influx and toxicity in relation to CRAC channel inhibition: DCPA metabolites
T2 sequence (Q13586 23-685): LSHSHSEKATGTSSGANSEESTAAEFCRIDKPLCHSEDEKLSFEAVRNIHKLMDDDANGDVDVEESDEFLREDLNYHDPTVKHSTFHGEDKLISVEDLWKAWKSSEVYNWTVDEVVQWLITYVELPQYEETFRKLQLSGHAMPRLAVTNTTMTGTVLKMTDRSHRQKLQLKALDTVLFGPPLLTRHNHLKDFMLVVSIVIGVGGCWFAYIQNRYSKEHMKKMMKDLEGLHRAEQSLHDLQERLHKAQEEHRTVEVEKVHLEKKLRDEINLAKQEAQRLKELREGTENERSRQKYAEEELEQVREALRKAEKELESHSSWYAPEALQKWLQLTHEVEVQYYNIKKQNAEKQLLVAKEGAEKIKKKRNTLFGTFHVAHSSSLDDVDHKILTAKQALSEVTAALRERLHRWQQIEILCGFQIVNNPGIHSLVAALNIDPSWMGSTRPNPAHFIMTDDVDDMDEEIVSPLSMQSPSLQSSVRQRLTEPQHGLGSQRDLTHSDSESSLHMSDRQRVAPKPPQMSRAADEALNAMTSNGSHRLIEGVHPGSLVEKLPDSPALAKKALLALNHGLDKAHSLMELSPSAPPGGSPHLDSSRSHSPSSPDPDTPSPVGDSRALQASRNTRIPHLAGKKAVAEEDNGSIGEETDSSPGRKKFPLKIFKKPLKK
From the text: The metabolism of DCPA by acylamidase produces DCA as mentioned above. DCA is then metabolized to N—OH-DCA and 6-OH-DCA. Both N—OH-DCA and 6-OH-DCA contribute to the systemic toxicity associated with in vivo administration of DCPA. […] Thus, the CRAC channel inhibitory activity of DCPA is not attributable to any of these toxic metabolites. Given that the CRAC channel inhibition associated with DCPA was not due to the more toxic metabolites, the present invention discloses haloanilide compositions of Formula I, and salts thereof that are not metabolized to DCA but that have similar CRAC channel inhibitory qualities of DCPA:
[drawing 7] wherein X is either chlorine or bromine, Y is either hydrogen or an alkyl group having a carbon chain length from 1 to 5 carbon atoms, and R is an alkyl group having a carbon chain length from 1 to 5 carbon atoms, except wherein X is not chlorine when Y is hydrogen and R is an ethyl group. Synthesis routes for N-(3,4-dibromophenyl)propanamide [also referred to as “DBPA” or “N-(3,4-bibromophenyl)propionamide”], N-(3,4-dichlorophenyl)-N-methylpropanamide [also referred to as “N-Methyl Propanil”; or “N-Methyl-DCPA”; or “NMP”; or “NM Propanil”; or “N-(3,4-dichlorophenyl)-N-methylpropionamide”; or “N,N-Methyl, Propyl-CA” (CA=carboxamide)], 3,4-dichloro-N-methyl-N-isobutyramide [also referred to as “N-(3,4-dichlorophenyl)-N,2-dimethylpropanamide”; or “DNMI”], N-(3,4-dichlorophenyl)-2-dimethylpropanamide, N-(3,4-dichlorophenyl)isobutyramide [also referred to as “DNI” or “N-Isobutyl-CA” (CA=carboxamide)], and N-(3,4-dichlorophenyl)-N-methylisobutyramide [also referred to as “N,N-Me, Isobutyl-CA” (CA=carboxamide)]. Each of the haloanilide compositions of this invention have undergone in vitro toxicity testing on Jurkat cells—this is a T cell line that is sensitivity to toxic effects and thus, was used to determine the effect of the compounds on viability. Each of the compositions of Formula I are capable of inhibiting CRAC channel activity as measured by intracellular calcium influx. […] FIGS. 4 and 5 show chemical structures of preferred haloanilide compositions of this invention.

[3] = target: T2, CRAC channel; test: CRAC channel activity by Fura-2 fluorescence in Jurkat cells after thapsigargin; design: endogenous in cells; host or cells: Jurkat cells; settings: 100 uM, 10 minutes before thapsigargin
Protocol: Ratiometric imaging of intracellular Ca^2+ using fura-2 was as described (see, Zhou et al., 2009 above). Briefly, cells on coverslips, in cation safe solution (107 mM NaCl, 7.2 mM KCl, 1.2 mM MgCl2, 11.5 mM glucose, 20 mM HEPES-NaOH, pH 7.2) were loaded with fura-2 acetoxymethyl ester (2 μM) for 30 min at 24° C. Cells were washed and fluorescent probe was allowed to de-esterify for 30 min. From signal remaining after saponin permeabilization, ˜85% of the dye was confined to the cytoplasm (see, Ma H-T, Patterson R L. van Rossum D B. Birnbaumer L, Mikoshiba K, Gill D L, “Requirement of the inositol trisphosphate receptor for activation of store-operated Ca^2+ channels”, Science, Vol. 287, pages 1647-1651, 2000). Ca^2+ measurements were made using a Leica DMI 6000B fluorescence microscope controlled by Slidebook Software. Fluorescence emission at 505 nm was monitored while alternating between 340 and 380 nm excitation wavelengths at a frequency of 0.67 Hz; intracellular Ca^2+ measurements are shown as 340/380 nm emission ratios obtained from groups (35-45) of single cells. Measurements shown are representative a minimum of three independent experiments.
N-(3,4-dibromophenyl)propanamide]. Jurkat cells, a T cell line that is very sensitive to DCPA, was cultured with the indicated compounds, DCPA, DBPA, and ethanol (EtOH). CRAC channel activity was monitored using Fura-2 fluorescence using standard known techniques. Cells were incubated in each composition at 100 uM for 10 minutes prior to addition of the SERCA inhibitor thapsigargin (Tg) to induce SOCe. Decreased CRAC channel activity is clearly evident with DCPA and DBPA.
Jurkat cells, a T cell line that is very sensitive to DCPA, was cultured with the indicated compositions of the present invention, namely, DNI, NM Propanil, and DNMNI. CRAC channel activity was monitored using Fura-2 fluorescence using standard known techniques. Cells were incubated in each composition at 100 uM for 10 minutes prior to addition of the SERCA inhibitor thapsigargin (Tg) to induce SOCe. Decreased CRAC channel activity is clearly evident with each of the compositions of the present invention. […] Each of the compositions of this invention achieve the results achieved with the known DCPA but without the burden of toxicity of DCPA that would accompany further metabolism of DCPA.

[4] = system: human monocytes differentiating into osteoclasts; test: Human osteoclast differentiation in vitro (multinucleation, TRAP); settings: 10 and 100 μM, 8 days after RANKL
Protocol: Human monocytes were isolated from normal buffy coat cells (60-80 ml) obtained with approval of institutional review boards by separation from donor blood, the white-cell depleted blood retained for clinical use. Human monocyte culture and differentiation were as reported (see, Yaroslayskly B B, Zhang Y, Kalla S E, Garcia P V, Sharrow A C, Li Y, Zaidi M, Wu C, Blair H C, “NO-dependent osteoclast motility: Reliance on cGMP-dependent protein kinase I and VASP”, J Cell Sci I, Vol. 18, pages 5479-5487, 2005). Briefly, human monocytes cells were isolated from buffy coat on ficoll lymphocyte separation media and cultured at ˜6×10^5 cells per cm^2 in monocyte maintenance medium, Dulbecco's modified essential medium (DMEM) with 20 ng/ml of human m-CSF and 10% FBS, for 24 hours (h). After 24 h in culture, the medium was changed to osteoclast differentiation medium containing in addition of human 50 ng/ml of RANKL, with the additional inhibitors or activators as specified in results. Human osteoclast cultures were generally maintained for a minimum of 7 days before analysis, or longer times as specified in results.
The effect of DCPA on human osteoclast differentiation 8 days after addition of RANKL was evaluated.

[5] = system: Store-Operated Calcium Entry (SOCE); test: Store-Operated Calcium Entry (SOCE) inhibition dose response (FIG. 10)

| Structure (SMILES) | CRAC channel activity [3] | effect on intracellular calcium influx and toxicity in relation to CRAC channel inhibition [2] | also measured |
| --- | --- | --- | --- |
| NCCOB(c1ccccc1)c1ccccc1 [2-APB, 2-aminoethoxydiphenylborate] |  |  | translocation of STIM I ct towards the PM [1]: significant translocation |
| Nc1cc(Cl)c(Cl)cc1O [6-OH-DCA] |  | not associated with CRAC channel inhibition |  |
| Nc1ccc(Cl)c(Cl)c1 [DCA, dichloroaniline] |  | not associated with CRAC channel inhibition |  |
| CCC(=O)Nc1ccc(F)c(F)c1 [DFPA, 3,4-difluoropropioanilide] |  |  | number of multinucleated cells [4]: no significant effect |
| ONc1ccc(Cl)c(Cl)c1 [N—OH-DCA] |  | not associated with CRAC channel inhibition |  |

Second part, led by results:

| CRAC channel activity [3] | Structure (SMILES) | effect on intracellular calcium influx and toxicity in relation to CRAC channel inhibition [2] | also measured |
| --- | --- | --- | --- |
| Decreased | CCC(=O)Nc1ccc(Br)c(Br)c1 [DBPA, N-(3,4-dibromophenyl)propanamide] |  |  |
| Decreased | CC(C)C(=O)Nc1ccc(Cl)c(Cl)c1 [DNI, N-(3,4-dichlorophenyl)isobutyramide] |  |  |
| Decreased | CC(C)C(=O)N(C)c1ccc(Cl)c(Cl)c1 [DNMNI, N-(3,4-dichlorophenyl)-N-methylisobutyramide] |  |  |
| Decreased | CCC(=O)N(C)c1ccc(Cl)c(Cl)c1 [NMP, N-(3,4-dichlorophenyl)-N-methylpropanamide] |  | pIC50 ([5]; FIG. 10B): 3.98; dose response compared with known DCPA ([5]; doses 3 μM to 1 mM, FIG. 10A): at least equal; inhibition of CRAC channel activity as measured by intracellular calcium influx [2]: effective at lower concentrations |
